Assays:
[1] = molecular target: T1, Telomerase reverse transcriptase (Homo sapiens, UniProt O14746); test: Inhibitory activity against telomerase; ND: Not detected concentrations as high as 50 uM
[2] = molecular target: T1, Telomerase reverse transcriptase; test: Inhibitory activity against telomerase; ND: not detected concentrations as high as 50 uM
[3] = molecular target: T1, Telomerase reverse transcriptase; test: Inhibitory activity against telomerase

T1 sequence (O14746 whole entry): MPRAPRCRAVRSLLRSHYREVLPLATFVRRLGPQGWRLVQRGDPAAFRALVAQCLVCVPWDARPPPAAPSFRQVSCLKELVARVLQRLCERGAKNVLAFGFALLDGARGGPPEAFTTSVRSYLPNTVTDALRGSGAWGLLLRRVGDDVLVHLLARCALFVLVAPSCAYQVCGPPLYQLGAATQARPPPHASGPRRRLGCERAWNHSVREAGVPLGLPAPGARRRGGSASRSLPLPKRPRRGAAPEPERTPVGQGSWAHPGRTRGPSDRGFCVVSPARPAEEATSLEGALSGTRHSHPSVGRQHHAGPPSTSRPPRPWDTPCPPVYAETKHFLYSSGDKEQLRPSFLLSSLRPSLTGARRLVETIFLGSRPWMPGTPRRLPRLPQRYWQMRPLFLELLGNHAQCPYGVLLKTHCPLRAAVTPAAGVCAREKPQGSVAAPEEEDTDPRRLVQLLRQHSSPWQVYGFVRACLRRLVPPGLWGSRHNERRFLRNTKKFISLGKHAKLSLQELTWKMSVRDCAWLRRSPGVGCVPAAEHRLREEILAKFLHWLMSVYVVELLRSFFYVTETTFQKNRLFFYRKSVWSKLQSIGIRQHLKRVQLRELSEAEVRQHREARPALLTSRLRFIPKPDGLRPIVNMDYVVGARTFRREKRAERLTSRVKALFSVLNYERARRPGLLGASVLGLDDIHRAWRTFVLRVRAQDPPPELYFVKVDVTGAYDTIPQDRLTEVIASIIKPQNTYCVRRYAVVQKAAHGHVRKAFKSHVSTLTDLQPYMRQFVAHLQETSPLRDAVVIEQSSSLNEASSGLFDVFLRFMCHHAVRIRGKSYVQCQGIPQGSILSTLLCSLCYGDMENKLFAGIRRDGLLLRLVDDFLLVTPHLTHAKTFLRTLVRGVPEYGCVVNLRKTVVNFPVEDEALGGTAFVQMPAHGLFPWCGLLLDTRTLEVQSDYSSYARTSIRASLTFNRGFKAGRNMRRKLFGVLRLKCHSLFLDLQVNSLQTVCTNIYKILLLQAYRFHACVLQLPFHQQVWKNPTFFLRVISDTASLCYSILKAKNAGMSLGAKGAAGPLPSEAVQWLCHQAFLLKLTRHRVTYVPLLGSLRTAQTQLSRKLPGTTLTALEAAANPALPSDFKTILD

Row | IC50 [1] | SMILES | other results
1 | Inhibition not detected | CC(CC(=O)Nc1ccccc1C(=O)O)c1ccc2ccccc2c1 (configuration not stated) | –
2 | – | CC(/C=C(\Cl)C(=O)Nc1ccccc1C(=O)O)c1ccccc1 (configuration not stated) | IC50 [2]: Inhibition not detected
3 | Inhibition not detected | COc1cc(CCC(=O)Nc2ccccc2C(=O)O)ccc1O | –
4 | – | C/C(=C\C(=O)Nc1ccccc1C(=O)O)c1ccc2ccccc2c1 | IC50 [3]: 5 µM
5 | – | C/C(=C/C(=O)Nc1ccccc1C(=O)O)c1ccc2ccccc2c1 | IC50 [3]: 5 µM
6 | Inhibition not detected | COc1cc(/C=C(\Cl)C(=O)Nc2ccccc2C(=O)O)ccc1OCc1ccccc1 | –
7 | Inhibition not detected | C/C(=C(/Cl)C(=O)Nc1ccccc1C(=O)O)c1ccc2ccccc2c1 | –
